Entries after “also recorded” stand apart in the source; their conditions may differ.
Legend:
[1] = Permanent wave evaluation of waving lotions on hair tresses (waving efficiency); settings: for Percent Waving Efficiency / Tress Length (cm) Lt: amine 0.75M with 13.2 wt. % (0.8M) GMT, pH 7.5, 37° C. for 20 minutes; for Tress Length (cm) Lt: length of permed hair measured in the water, shorter = tighter curl
Text: The pH was adjusted using a 10 wt. % HCl solution. Tresses were rolled onto mandrels and evaluated using the permanent wave evaluation procedure that follows. Procedure for Permanent Wave Evaluation […] 1. A bundle of 16 inch long medium virgin brown hair was secured with beeswax by dipping approximately 2 inches of the root end of the bundled hair into melted wax for 5 seconds. When the wax is cool to the touch, it is shaped into a square and allowed to harden. 2. Hair is broken into smaller bundles, washed with a 10 wt. % sodium lauryl sulfate solution and then rinsed. 3. Hair is sectioned into tresses of 45 hairs and the waxed end is re-waxed to further secure the tress. The wax is allowed to dry, and a piece of tape is wrapped around it to provide a writing surface. […] 4. An 8 cm long, 1.25 cm diameter spiral rod with 25 turns is used. The waxed end of the hair is secured between the 9th and 10th turns using a rubber band. […] 5. A piece of tape, width 2.5 cm, is wrapped sideways around the bottom edge of the hair, covering the bottom 2.5 cm. A 3.4 g alligator clip is used to secure the tape. Using a piece of copper wire as a hook, a 6 oz. weight is hung from the tape at the bottom of the hair. The hair is rolled around the rod, using the weight to provide equal tension during rolling. The weight is removed after rolling, and the bottom tape is secured around the rod with a piece of Tygon tubing. 6. […] The solution completely covers the hair. The test tube is placed in a constant temperature water bath at 37° C. for 20 minutes. 7. The rod is removed and rinsed for 3 minutes under running tap water at approximately 30° C. and a flow rate of approximately 1 liter/minute. The rod is then placed into a new test tube with 10 mL of neutralizer (2 wt. % hydrogen peroxide, 0.05 wt. % polyquat-11, and phosphoric acid to pH 3.1). The rod is removed and rinsed with the 30° C. tap water for 2 minutes. 8. The tress is soaked in a bowl of 30° C. tap water for 5 minutes to allow complete oxidation. The tress is then carefully unrolled from the rod without tension, starting from the bottom and keeping the spiral configuration intact. The tape is cut off the hair using scissors while the hair is still on the rod. […] 10. […] A glass container (10×11.5×4 in) is used in which clear plastic rulers are glued along the front and back walls. A copper wire is secured across the top of the container. The rulers should be lined up to provide a way to accurately measure the hair. A copper wire hook is placed through the tape at the top of the tress and hung on the wire. […] Waving Efficiency After the procedure, the lengths of the tresses were measured in a water bath. The shorter the tress, the tighter the curl and the better the product. The curl is measured from the end of the wax to the end of the curl. [formula] where Li=initial length of tress from wax end to tip Lo=length of tress when wrapped on the rod Lt=length of permed hair from wax end to tip, measured in the water

[2] = pKa and free amine of the alkalizer; format: physicochemical; settings: at a pH of about 7.5

| Compound | Percent Waving Efficiency [1] [%] | Tress Length (cm) Lt [1] [cm] | free amine [2] | free amine ([2]; listed as monoethanolamine) [%] | performance as alkalizer in waving lotion (in words) ([1]; low pH waving lotion, in combination with a reducing agent) |
| --- | --- | --- | --- | --- | --- |
| N [Ammonia] | 47.8 | 15.5 ± 1.2 |  |  |  |
| NCCO [Monoethanolamine] | 45.4 | 16.1 ± 0.5 | one | 1 |  |
| NC(CO)(CO)CO [Tris, tris(hydroxymethyl)amino methane] |  | 15.7 ± 0.9 | about 22% |  | effective alkalizer; also recorded: better results than monoethanolamine |
